Where two headings read alike, the source gives them in different places.
Experiments:
Type in all cases: cell-based
S. mansoni adult worms = experiment: In vitro assay, S. mansoni adult worms; conditions: Schistosoma mansoni; S. mansoni adult worms, in vitro; read-out: (a) Adult
Protocol: (§1) The routine biological assays using adult or juvenile worms and cytotoxicity assays using MRC-5 cells have been disclosed previously in Mansour, N. R., et al. (2016). “High Throughput Screening Identifies Novel Lead Compounds with Activity against Larval, Juvenile and Schistosoma mansoni PLoS Negl Trap Dis 10(4): e0004659. Cytotoxicity assays using the HepG2 cell line were carried out as described in Molecular Diversity (2015) 19, 251-261.
(a) S. mansoni adult worms

[1] = system: S. mansoni juvenile worms; experiment: In vitro assay, S. mansoni juvenile worms; conditions: Schistosoma mansoni, read-out: (b) Juvenile
Protocol: as §1
(b) S. mansoni juvenile worms

HepG2 cell line = experiment: Cytotoxicity against human HepG2 cell lines
[2] = S. mansoni juvenile worms, in vitro

| SMILES | IC50 (S. mansoni adult worms) [nM] | IC50 [1, 2] [nM] | (e) Cytotox HepG2 (HepG2 cell line) [µM] | IC50 [1] [nM] |
| --- | --- | --- | --- | --- |
| COc1ccc(-c2c(C)nn3cnc(-c4cccc(C(F)(F)F)c4)cc23)cc1O [Example 23, 2-methoxy-5-(2-methyl-5-(3-(trifluoromethyl)phenyl)pyrazolo[1,5-c]pyrimidin-3-yl)phenol] |  | 790 |  |  |
| COc1ccc(-c2c(C(C)C)nn3cnc(-c4cccc(C(F)(F)F)c4)cc23)cc1O [Example 25, 5-(2-isopropyl-5-(3-(trifluoromethyl)phenyl)pyrazolo[1,5-c]pyrimidin-3-yl)-2-methoxyphenol] |  | 110 |  |  |
| COc1ccc(-c2c(C(C)C)nc3cnc(-c4cccc(C(F)(F)F)c4)cn23)cc1OP(=O)(O)O [Example 28, 2-methoxy-5-[2-(propan-2-yl)-6-[3-(trifluoromethyl)phenyl]imidazo[1,2-a]pyrazin-3-yl]phenoxyphosphonic acid] |  |  | 19.2 | 183 |
| Cc1nc2cnc(-c3ccc(F)c(C(F)(F)F)c3)cn2c1-c1c(F)cc(OP(=O)(O)O)cc1F [Example 41, 3,5-difluoro-4-{6-[4-fluoro-3-(trifluoromethyl)phenyl]-2-methyl-imidazo[1,2-a]pyrazin-3-yl}phenoxyphosphonic acid] |  |  | 6.8 | 100 |
| Fc1ccc(-c2cn3c(-c4ccc5[nH]ncc5c4F)c(C4CC4)nc3cn2)cc1C(F)(F)F [Example 43, 2-cyclopropyl-3-(4-fluoro-1H-indazol-5-yl)-6-(4-fluoro-3-(trifluoromethyl)phenyl)imidazo[1,2-a]pyrazine] |  | 110 |  |  |
| Fc1ccc(-c2cn3c(-c4ccc5[nH]ncc5c4F)c(C4CC4)nc3cn2)cc1C(F)(F)C(F)(F)F [Example 54, 5-{2-cyclopropyl-6-[4-fluoro-3-(1,1,2,2,2-pentafluoroethyl)phenyl]imidazo[1,2-a]pyrazin-3-yl}-4-fluoro-1H-indazole] | 23 | 37 |  |  |
| Fc1ccc(-c2cc3c(-c4ccc5[nH]ncc5c4F)c(C4CC4)nn3cn2)cc1C(F)(F)C(F)(F)F [Example 59, 2-Cyclopropyl-3-(4-fluoro-1H-indazol-5-yl)-5-(4-fluoro-3-pentafluoroethyl-phenyl)-pyrazolo[1,5-c]pyrimidine] | 66 | 36 |  |  |
| Oc1cc(F)c(-c2c(C3CC3)nn3cnc(-c4ccc(F)c(C(F)(F)F)c4)cc23)c(F)c1 [Example 60, 4-[2-Cyclopropyl-5-(4-fluoro-3-trifluoromethyl-phenyl)-pyrazolo[1,5-c]pyrimidin-3-yl]-3,5-difluoro-phenol] | 17 | 21 |  |  |
| CC(C)c1nn2cnc(-c3ccc(F)c(C(F)(F)F)c3)cc2c1-c1ccc2[nH]ncc2c1F [Example 61, 3-(4-Fluoro-1H-indazol-5-yl)-5-(4-fluoro-3-trifluoromethyl-phenyl)-2-isopropylpyrazolo[1,5-c]pyrimidine] | 37 | 60 |  |  |
| Cc1nc2cnc(-c3ccc(F)c(S(F)(F)(F)(F)F)c3)cn2c1-c1ccc2[nH]ncc2c1F [Example 64, 3-(4-Fluoro-1H-indazol-5-yl)-6-(4-fluoro-3-pentafluorosulfanyl-phenyl)-2-methyl-imidazo[1,2-a]pyrazine] | 26 | 77 |  |  |
| CC(C)c1nc2cnc(-c3ccc(F)c(S(F)(F)(F)(F)F)c3)cn2c1-c1ccc2[nH]ncc2c1F [Example 68, 3-(4-Fluoro-1H-indazol-5-yl)-6-(4-fluoro-3-pentafluorosulfanyl-phenyl)-2-isopropyl-imidazo[1,2-a]pyrazine] | 11 | 10 |  |  |
| CC(C)c1nc2cnc(-c3cccc(Br)c3)cn2c1-c1ccc2[nH]ncc2c1F [Example 73, 6-(3-Bromo-phenyl)-3-(4-fluoro-1H-indazol-5-yl)-2-isopropyl-imidazo[1,2-a]pyrazine] | 36 | 27 |  |  |
| Fc1ccc(-c2cn3c(-c4ccc5[nH]ncc5c4F)c(C4CCC4)nc3cn2)cc1C(F)(F)F [Example 76, 2-Cyclobutyl-3-(4-fluoro-1H-indazol-5-yl)-6-(4-fluoro-3-trifluoromethyl-phenyl)-imidazo[1,2-a]pyrazine] | 37 | 36 |  |  |
| C#CCOc1cc(-c2cn3c(-c4ccc5[nH]ncc5c4F)c(C(F)(F)F)nc3cn2)ccc1F [Example 78, 3-(4-Fluoro-1H-indazol-5-yl)-6-(4-fluoro-3-prop-2-ynyloxy-phenyl)-2-trifluoromethyl-imidazo[1,2-a]pyrazine] | 10 | 21 |  |  |

Second part, led by results:

| IC50 (S. mansoni adult worms) [nM] | IC50 [1, 2] [nM] | SMILES | (e) Cytotox HepG2 (HepG2 cell line) [µM] | IC50 [1] [nM] |
| --- | --- | --- | --- | --- |
| 490 | 1420 | Cc1nc2cnc(-c3cccc(C(F)(F)F)c3)cn2c1-c1ccc(O)cc1 [Example 4, 4-[2-methyl-6-[3-(trifluoromethyl)phenyl]imidazo[1,2-a]pyrazin-3-yl]phenol] |  |  |
| 520 | 1270 | COc1cc(-c2c(C)nc3cnc(-c4cccc(C(F)(F)F)c4)cn23)ccc1O [Example 5, 2-methoxy-4-(2-methyl-6-(3-(trifluoromethyl)phenyl)imidazo[1,2-a]pyrazin-3-yl)] |  |  |
|  | 490 | Oc1ccc(-c2c(C(F)F)nc3cnc(-c4cccc(C(F)(F)F)c4)cn23)c(F)c1 [Example 11, 3-fluoro-4-[2-difluoromethyl-6-[3-(trifluoromethyl)phenyl]imidazo[1,2-a]pyrazin-3-yl]phenol] |  |  |
| < 49 | 250 | Oc1ccc(-c2c(C(F)(F)F)nc3cnc(-c4cccc(C(F)(F)F)c4)cn23)c(F)c1 [Example 12, 3-fluoro-4-[2-trifluoromethyl-6-[3-(trifluoromethyl)phenyl]imidazo[1,2-a]pyrazin-3-yl]phenol] |  |  |
| 72 | 63 | COc1ccc(-c2c(C3CC3)nc3cnc(-c4cccc(C(F)(F)F)c4)cn23)cc1O [Example 13, 2-methoxy-5-[2-cyclopropyl-6-[3-(trifluoromethyl)phenyl]imidazo[1,2-a]pyrazin-3-yl]phenol] |  |  |
|  | 230 | Oc1ccc(-c2c(C3CC3)nc3cnc(-c4cccc(C(F)(F)F)c4)cn23)c(F)c1 [Example 14, 3-fluoro-4-[2-cyclopropyl-6-[3-(trifluoromethyl)phenyl]imidazo[1,2-a]pyrazin-3-yl]phenol] |  |  |
|  | 170 | Cc1nc2cnc(-c3cccc(C(F)(F)F)c3)cn2c1-c1c(F)cc(O)cc1F [Example 15, 3,5-difluoro-4-[2-methyl-6-[3-(trifluoromethyl)phenyl]imidazo[1,2-a]pyrazin-3-yl]phenol] | 8.4 |  |
|  | 290 | CCCc1nc2cnc(-c3cccc(C(F)(F)F)c3)cn2c1-c1ccc(OC)c(O)c1 [Example 18, 2-methoxy-5-[2-(propan-1-yl)-6-[3-(trifluoromethyl)phenyl]imidazo[1,2-a]pyrazin-3-yl]phenol] |  |  |
| 920 | 1040 | COc1cc(O)ccc1-c1c(C(C)C)nc2cnc(-c3cccc(C(F)(F)F)c3)cn12 [Example 20, 4-(2-isopropyl-6-(3-(trifluoromethyl)phenyl)imidazo[1,2-a]pyrazin-3-yl)-3-methoxyphenol] |  |  |
|  | 220 | COc1ccc(-c2c(CC3CC3)nc3cnc(-c4cccc(C(F)(F)F)c4)cn23)cc1O [Example 26, 2-methoxy-5-[2-(cyclopropylmethyl)-6-[3-(trifluoromethyl)phenyl]imidazo[1,2-a]pyrazin-3-yl]phenol] |  |  |
| < 49 | 149 | COc1ccc(-c2c(C(C)C)nc3cnc(-c4ccc(F)c(C(F)(F)F)c4)cn23)cc1O [Example 27, 2-methoxy-5-[2-(propan-2-yl)-6-[4-fluoro-3-(trifluoromethyl)phenyl]imidazo[1,2-a]pyrazin-3-yl]phenol] |  |  |
|  | 100 | Cc1nc2cnc(-c3cccc(S(F)(F)(F)(F)F)c3)cn2c1-c1c(F)cc(O)cc1F [Example 31, 3,5-difluoro-4-[2-methyl-6-[3-(pentafluorosulfanyl)phenyl]imidazo[1,2-a]pyrazin-3-yl]phenol] |  |  |
|  | 110 | CCc1nc2cnc(-c3ccc(F)c(C(F)(F)F)c3)cn2c1-c1ccc2[nH]ncc2c1F [Example 37, 4-fluoro-5-{2-ethyl-6-[4-fluoro-3-(trifluoromethyl)phenyl]imidazo[1,2-a]pyrazin-3-yl}-1H-indazole] | 13.1 |  |
|  | 140 | Oc1cc(F)c(-c2c(CC(F)(F)F)nc3cnc(-c4ccc(F)c(C(F)(F)F)c4)cn23)c(F)c1 [Example 38, 3,5-difluoro-4-(6-(4-fluoro-3-(trifluoromethyl)phenyl)-2-(2,2,2-trifluoroethyl)imidazo[1,2-a]pyrazin-3-yl)phenol] |  |  |
|  | 110 | Cc1nn2cnc(-c3ccc(F)c(C(F)(F)F)c3)cc2c1-c1c(F)cc(O)cc1F [Example 42, 3,5-difluoro-4-(5-(4-fluoro-3-(trifluoromethyl)phenyl)-2-methylpyrazolo[1,5-c]pyrimidin-3-yl)phenol] |  |  |
| 25 | 41 | Fc1c(-c2c(C(F)(F)F)nc3cnc(-c4cccc(C(F)(F)F)c4)cn23)ccc2[nH]ncc12 [Example 70, 3-(4-Fluoro-1H-indazol-5-yl)-2-trifluoromethyl-6-(3-trifluoromethyl-phenyl)-imidazo[1,2-a]pyrazine] |  |  |
| 4 | 5 | CC(C)c1cc(-c2cn3c(-c4c(F)cc(O)cc4F)c(C4CC4)nc3cn2)ccc1F [Example 80, 4-[2-Cyclopropyl-6-(4-fluoro-3-isopropyl-phenyl)-imidazo[1,2-a]pyrazin-3-yl]-3,5-difluoro-phenol] |  |  |
| 48 | 7 | Fc1ccc(-c2cn3c(-c4ccc5[nH]ncc5c4F)c(C(F)(F)F)nc3cn2)cc1Br [Example 85, 6-(3-Bromo-4-fluoro-phenyl)-3-(4-fluoro-1H-indazol-5-yl)-2-trifluoromethyl-imidazo[1,2-a]pyrazine] |  |  |

— patent US11046700B2, “Substituted imidazo[1,2-a]pyrazines, pyrazolo[1,5-c]pyrimidines, pyrazolo[1,5-a]pyridines, and purines for the treatment of schistosomiasis” (Merck Patent GmbH, priority 2017, dated 2021)
